Data: patent publication US20130274174A1, “THERAPEUTIC COMBINATION OF DAPTOMYCIN AND PROTEIN SYNTHESIS INHIBITOR ANTIBIOTIC, AND METHODS OF USE” (priority 2011, published 2013)
≈ marks a conversion by molar mass, not a printed value. Like-named read-outs stand apart in the source and are kept apart here.

Key:
[1] = tested on: S. aureus MW2 (NRS123); experiment: microbe, parasite or virus in culture; assay type: cell-based, Staphylococcus aureus; conditions: Staphylococcus aureus
Protocol: S. aureus strains MW2 (NARSA collection clinical MRSA isolate, NRS123) and ATCC 33591 (MRSA strain from the American Type Culture Collection) were cultured on Mueller-Hinton II cation adjusted (MHA) medium in 90×90 mm square petri dishes. MHA containing ¼ of the MIC value of TR-700, TR-705, LZD, TIA, CLI, TET, or VAN, TMP/SMX throughout the plate and a continuous linear gradient of DAP across the plate was used to passage MW2. ATCC 33591 was passaged with ¼ of the MIC of a subset of these drugs (TR-700, TMP/SMX, and VAN). A DAP-only control passage group was included for both strains. DAP gradients were created by pouring two layers of media as previously described (Bryson, V., et al. 1952. Microbial selection. Science 116:45-51; Locke, J. B., et al., 2009. Antimicrob. Agents Chemother. 53:5265-5274). Following each passage the leading edge of growth (i.e., most resistant cells) was resuspended in phosphate buffered saline (PBS) to an absorbance of 0.30 OD600 and a 100 μl aliquot containing ˜3.0×10^7 CFU (colony-forming units) was spread on to the proceeding passage plate. The starting maximal DAP concentration was 2 μg/ml and was increased in two-fold increments when the leading edge of growth surpassed the half way point on the plate. A glycerol stock was made from the total cell population for each culture condition for each passage. Thirty serial passages were completed for each treatment group.

[2] = tested on: S. aureus and enterococci; conditions: Entenza et al. 2010; cited from earlier work

C=C[C@]1(C)C[C@@H](OC(=O)CSCCN(CC)CC)[C@]2(C)[C@H](C)CC[C@]3(CCC(=O)[C@H]32)[C@@H](C)[C@@H]1O [TIA, tiamulin]
MIC ([1]; NRS123, passage 0, NRS123 WT): 0.5 µg/mL (≈ 1.01 µM) | MIC ([1]; NRS123, passage 5, selection group DAP): 0.5 µg/mL (≈ 1.01 µM) | MIC ([1]; NRS123, passage 5, selection group DAP + CLI): 1 µg/mL | MIC ([1]; NRS123, passage 5, selection group DAP + LZD): 1 µg/mL | MIC ([1]; NRS123, passage 5, selection group DAP + TET): 0.5 µg/mL | MIC ([1]; NRS123, passage 5, selection group DAP + TIA): 0.5 µg/mL | MIC ([1]; NRS123, passage 5, selection group DAP + TMP/SMX): 0.5 µg/mL | MIC ([1]; NRS123, passage 5, selection group DAP + TR-700): 1 µg/mL | MIC ([1]; NRS123, passage 5, selection group DAP + TR-705): 1 µg/mL | MIC ([1]; NRS123, passage 5, selection group DAP + VAN): 0.5 µg/mL | MIC ([1]; NRS123, passage 10, selection group DAP): 0.5 µg/mL (≈ 1.01 µM) | MIC ([1]; NRS123, passage 10, selection group DAP + CLI): 1 µg/mL | MIC ([1]; NRS123, passage 10, selection group DAP + LZD): 1 µg/mL | MIC ([1]; NRS123, passage 10, selection group DAP + TET): 0.5 µg/mL | MIC ([1]; NRS123, passage 10, selection group DAP + TIA): 0.5 µg/mL | MIC ([1]; NRS123, passage 10, selection group DAP + TMP/SMX): 1 µg/mL | MIC ([1]; NRS123, passage 10, selection group DAP + TR-700): 1 µg/mL | MIC ([1]; NRS123, passage 10, selection group DAP + TR-705): 0.5 µg/mL | MIC ([1]; NRS123, passage 10, selection group DAP + VAN): 0.5 µg/mL | MIC ([1]; NRS123, passage 15, selection group DAP): 0.5 µg/mL (≈ 1.01 µM) | MIC ([1]; NRS123, passage 15, selection group DAP + CLI): 0.5 µg/mL | MIC ([1]; NRS123, passage 15, selection group DAP + LZD): 1 µg/mL | MIC ([1]; NRS123, passage 15, selection group DAP + TET): 0.25 µg/mL | MIC ([1]; NRS123, passage 15, selection group DAP + TIA): 0.5 µg/mL | MIC ([1]; NRS123, passage 15, selection group DAP + TMP/SMX): 1 µg/mL | MIC ([1]; NRS123, passage 15, selection group DAP + TR-700): 1 µg/mL | MIC ([1]; NRS123, passage 15, selection group DAP + TR-705): 0.5 µg/mL | MIC ([1]; NRS123, passage 15, selection group DAP + VAN): 0.5 µg/mL | MIC ([1]; NRS123, passage 20, selection group DAP): 0.5 µg/mL (≈ 1.01 µM) | MIC ([1]; NRS123, passage 20, selection group DAP + CLI): 0.5 µg/mL | MIC ([1]; NRS123, passage 20, selection group DAP + LZD): 1 µg/mL | MIC ([1]; NRS123, passage 20, selection group DAP + TET): 0.25 µg/mL | MIC ([1]; NRS123, passage 20, selection group DAP + TIA): 0.5 µg/mL | MIC ([1]; NRS123, passage 20, selection group DAP + TMP/SMX): 0.5 µg/mL | MIC ([1]; NRS123, passage 20, selection group DAP + TR-700): 1 µg/mL | MIC ([1]; NRS123, passage 20, selection group DAP + TR-705): 0.5 µg/mL | MIC ([1]; NRS123, passage 20, selection group DAP + VAN): 0.5 µg/mL | MIC ([1]; NRS123, passage 25, selection group DAP): 0.25 µg/mL (≈ 0.506 µM) | MIC ([1]; NRS123, passage 25, selection group DAP + CLI): 0.5 µg/mL | MIC ([1]; NRS123, passage 25, selection group DAP + LZD): 0.25 µg/mL | MIC ([1]; NRS123, passage 25, selection group DAP + TET): 0.25 µg/mL | MIC ([1]; NRS123, passage 25, selection group DAP + TIA): 0.5 µg/mL | MIC ([1]; NRS123, passage 25, selection group DAP + TMP/SMX): 0.5 µg/mL | MIC ([1]; NRS123, passage 25, selection group DAP + TR-700): 1 µg/mL | MIC ([1]; NRS123, passage 25, selection group DAP + TR-705): 0.5 µg/mL | MIC ([1]; NRS123, passage 25, selection group DAP + VAN): 0.5 µg/mL | MIC ([1]; NRS123, passage 30, selection group DAP): 0.25 µg/mL (≈ 0.506 µM) | MIC ([1]; NRS123, passage 30, selection group DAP + CLI): 0.25 µg/mL | MIC ([1]; NRS123, passage 30, selection group DAP + LZD): 0.5 µg/mL | MIC ([1]; NRS123, passage 30, selection group DAP + TET): 0.25 µg/mL | MIC ([1]; NRS123, passage 30, selection group DAP + TIA): 0.5 µg/mL | MIC ([1]; NRS123, passage 30, selection group DAP + TMP/SMX): 0.5 µg/mL | MIC ([1]; NRS123, passage 30, selection group DAP + TR-700): 0.5 µg/mL | MIC ([1]; NRS123, passage 30, selection group DAP + TR-705): 0.5 µg/mL | MIC ([1]; NRS123, passage 30, selection group DAP + VAN): 0.25 µg/mL | MIC ([1]; NRS123, read-out: DAP MIC by the end of the experiment (selection of DAP^ns strains), MW2, passaged with DAP alone or with co-selecting agent at ¼ MIC, CLSI breakpoint): > 1 µg/mL

CC1(C)S[C@@H]2[C@H](NC(=O)[C@H](N)c3ccccc3)C(=O)N2[C@H]1C(=O)O [ampicillin]
prevention of the emergence of daptomycin resistance [2]: prevented or greatly delayed selection of daptomycin-nonsusceptible mutants

Gentamicin
increase of MIC in parallel to the increase in the daptomycin MIC [2]: two-fold | prevention of the emergence of daptomycin resistance [2]: unable to prevent the emergence of daptomycin resistance
